Reference: publication PMC11418212, “Characterization of four structurally diverse inhibitors of SUR2-containing KATP channels” (Channels, 2024)
Where “and” joins values, the source holds several entries; their conditions need not be identical. Equal values may be shown once.

Key:
Experiment in all cases: Kir family selectivity thallium flux assay
Format in all cases: cell-based
Kir3.1/3.2 = molecular target: T1, Kir3.1/3.2 (Homo sapiens, UniProt P48051+P48549)
T1 construct: expressed in transfected cells
T1 sequence (P48549 1-501): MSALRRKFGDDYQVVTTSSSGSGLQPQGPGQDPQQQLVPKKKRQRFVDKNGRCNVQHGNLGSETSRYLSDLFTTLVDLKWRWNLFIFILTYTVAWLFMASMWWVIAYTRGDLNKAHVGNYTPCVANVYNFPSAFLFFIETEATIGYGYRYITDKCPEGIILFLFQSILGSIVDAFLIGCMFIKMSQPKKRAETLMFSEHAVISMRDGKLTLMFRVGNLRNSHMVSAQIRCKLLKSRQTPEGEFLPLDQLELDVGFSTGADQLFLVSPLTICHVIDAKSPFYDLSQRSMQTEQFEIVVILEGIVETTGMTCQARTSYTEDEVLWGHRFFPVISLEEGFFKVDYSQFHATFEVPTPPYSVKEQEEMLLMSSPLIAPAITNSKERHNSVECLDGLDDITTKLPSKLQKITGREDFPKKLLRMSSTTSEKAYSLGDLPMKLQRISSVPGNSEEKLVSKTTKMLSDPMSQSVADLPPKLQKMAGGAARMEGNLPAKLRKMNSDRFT
T1 sequence (P48051 1-423): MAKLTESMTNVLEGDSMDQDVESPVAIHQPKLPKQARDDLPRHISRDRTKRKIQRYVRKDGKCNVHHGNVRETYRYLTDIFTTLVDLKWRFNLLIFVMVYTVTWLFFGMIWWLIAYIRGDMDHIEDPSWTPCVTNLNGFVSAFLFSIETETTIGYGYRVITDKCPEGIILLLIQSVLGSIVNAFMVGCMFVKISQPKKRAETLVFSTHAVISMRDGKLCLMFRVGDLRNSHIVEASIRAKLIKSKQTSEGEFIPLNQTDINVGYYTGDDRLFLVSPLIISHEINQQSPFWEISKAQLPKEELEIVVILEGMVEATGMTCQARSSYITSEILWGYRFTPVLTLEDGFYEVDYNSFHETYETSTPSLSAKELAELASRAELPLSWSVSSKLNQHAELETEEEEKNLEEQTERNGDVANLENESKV
Protocol: (§1) Thallium flux assays were conducted using the established methods. Stably transfected T-REx-HEK-293 cells expressing Kir6.2/SUR1 or Kir6.1/SUR2B were cultured overnight in polyamine-coated plates (black-walled, clear-bottomed; BD, Bedford, MA) at a density of 20,000 cells in 20 µl per well of cell culture media. The expression of Kir6.2/SUR1 or Kir6.1/SUR2B channels was induced by treating cells with 1 µg/ml tetracycline overnight. The following day, cells were rinsed with an assay buffer (Hanks’ Balanced Salt Solution supplied with 20 mM HEPES), loaded with the thallium-sensor dye Brilliant Thallos-AM AM (Ion Bioscience, San Marcos, TX) for 1 h, and then washed again with assay buffer to remove unincorporated dye. The cell plate was subsequently placed in a Panoptic Kinetic Imaging Plate Reader (Wavefront Bioscience, Franklin, TN) and imaged at a frequency of 1 Hz using 482/35 nm (excitation) and 536/40 nm (emission) filter sets. Kir6.1/SUR2B channels were activated with 10 µM pinacidil, whereas Kir6.1/SUR1 was activated with 30 µM VU0071063 [34]. To activate KATP channels independent of activators with ATP-depletion method, cells were treated with a cocktail of metabolic inhibitors (2.5 mM sodium cyanide and 20 mM 2-deoxy glucose) for 25 min before imagine. Control and test compounds diluted freshly from DMSO stocks into assay buffer were added to wells for four minutes before adding 0.5 mM chloride-free thallium stimulus buffer (Ion Bioscience) to initiate thallium flux through the expressed KATP channels. Thallium flux was recorded from all 384-wells for 2 min before terminating the experiment. […] Selectivity assays against other Kir channels were performed as described previously.
(§2) To begin elucidating the binding site location of VU0212387, VU0543336, VU0605768, and VU0544086, we evaluated the activity of the inhibitors against KATP channels composed of different Kir and SUR subunit combinations expressed in HEK293 cells. Specifically, the compounds were tested against Kir6.1/SUR1, Kir6.2/SUR1, Kir6.1/SUR2A, Kir6.2/SUR2A, Kir6.1/SUR2B, and Kir6.2/SUR2B at a dose of 3 µM. […] We expanded the selectivity analysis to include 10 other members of the Kir channel family.

Kir4.1 = molecular target: T2, Kir4.1 (Homo sapiens, UniProt P78508)
T2 construct: expressed in transfected cells
T2 sequence (P78508 1-379): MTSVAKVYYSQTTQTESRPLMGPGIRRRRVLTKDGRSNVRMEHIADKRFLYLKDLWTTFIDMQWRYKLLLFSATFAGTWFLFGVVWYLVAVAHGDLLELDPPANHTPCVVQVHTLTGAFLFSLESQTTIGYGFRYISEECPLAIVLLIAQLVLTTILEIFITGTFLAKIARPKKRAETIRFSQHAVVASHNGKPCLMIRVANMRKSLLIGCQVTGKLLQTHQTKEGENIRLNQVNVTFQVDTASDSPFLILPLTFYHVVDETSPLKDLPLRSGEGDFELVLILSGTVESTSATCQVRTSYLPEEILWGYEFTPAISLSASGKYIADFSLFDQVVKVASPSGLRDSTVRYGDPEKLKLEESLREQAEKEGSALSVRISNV
Protocol: as §1, §2

Kir4.2 = molecular target: T3, Kir4.2 (Homo sapiens, UniProt Q99712); settings: for IC50: thallium flux; for inhibition at 30 µM: observed at 30 µM, read-out: Percent maximal inhibition of Kir4.2
T3 construct: expressed in transfected cells
T3 sequence (Q99712 1-375): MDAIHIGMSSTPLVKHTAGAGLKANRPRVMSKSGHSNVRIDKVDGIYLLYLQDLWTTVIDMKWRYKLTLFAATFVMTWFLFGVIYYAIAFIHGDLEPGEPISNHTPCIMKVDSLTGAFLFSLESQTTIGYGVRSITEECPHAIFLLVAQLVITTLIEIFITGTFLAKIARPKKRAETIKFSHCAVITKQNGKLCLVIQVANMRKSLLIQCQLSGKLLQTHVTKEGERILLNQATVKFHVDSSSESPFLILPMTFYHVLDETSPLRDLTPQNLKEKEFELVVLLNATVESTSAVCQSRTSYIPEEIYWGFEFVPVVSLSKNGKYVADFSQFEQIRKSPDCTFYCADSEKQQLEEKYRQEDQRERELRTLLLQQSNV
Protocol: as §1, §2

SMILES	IC50 (Kir3.1/3.2)	IC50 (Kir4.1)	IC50 (Kir4.2)	inhibition at 30 µM (Kir4.2)
O=C(NCc1cc(-c2ccncc2)n(C2CCCC2)n1)Nc1cccs1 [VU0544086, 1-((1-cyclopentyl-5-(pyridin-4-yl)-1 H-pyrazol-3-yl)methyl)-3-(thiophen-2-yl)urea]	> 30 µM	> 30 µM	> 30 µM	–
O=C(NCC(O)(c1ccccc1)C(F)(F)F)c1ccc(OC(F)(F)F)cc1 (centres unmarked) [VU0543336, N-(3,3,3-trifluoro-2-hydroxy-2-phenylpropyl)-4-(trifluoromethoxy)benzamide]	> 30 µM	> 30 µM	12 µM and 11.8 µM	110%
O=C1c2oc3ccccc3c(=O)c2C(c2cccc(Br)c2)N1CCO (centres unmarked) [VU0605768, 1-(3-bromophenyl)-2-(2-hydroxyethyl)-1,2-dihydrochromeno[2,3-c]pyrrole-3,9-dione]	> 30 µM	> 30 µM	> 30 µM	–
c1ccc2[nH]c(CSc3ncnc4c3oc3ccccc34)nc2c1 [VU0212387, 4-(((1 H-benzo[d]imidazol-2-yl)methyl)thio)benzofuro[3,2-d]pyrimidine]	> 30 µM	> 30 µM	17 µM and 17.1 µM	56%
